Measured values published in the supplement of paper PMC10307832.

How the values were obtained:
Assay in all cases: relative viability (nuclei count vs DMSO), 5 days (fraction); higher = more cells survive
NCI-H596 = test system: NCI-H596
Method in brief: (§1)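 Lung cancer cell lines in 1536-well plates got either a single drug or a fixed anchor-drug dose together with five library-drug doses (not always all listed) in √10 steps, by pin tool, on the day after seeding. Nuclei were counted after 5 days, and relative viability is the treated-to-vehicle ratio of nuclei counts. Values are medians of duplicate plates.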

NCI-H1993 = test system: NCI-H1993
Method in brief: as §1

HCC-827 = test system: HCC-827
Method in brief: as §1

LU99A = test system: LU99A
Method in brief: as §1

NCI-H1944 = test system: NCI-H1944
Method in brief: as §1

SK-LU-1 = test system: SK-LU-1
Method in brief: as §1

LC-2-ad = test system: LC-2-ad
Method in brief: as §1

NCI-H3122 = test system: NCI-H3122
Method in brief: as §1

NCI-H1915 = test system: NCI-H1915
Method in brief: as §1

HCC-15 = test system: HCC-15
Method in brief: as §1

RERF-LC-KJ = test system: RERF-LC-KJ
Method in brief: as §1

NCI-H1755 = test system: NCI-H1755
Method in brief: as §1

NCI-H522 = test system: NCI-H522
Method in brief: as §1

LCLC-97TM1 = test system: LCLC-97TM1
Method in brief: as §1

COR-L 105 = test system: COR-L 105
Method in brief: as §1

EKVX = test system: EKVX
Method in brief: as §1

SK-MES-1 = test system: SK-MES-1
Method in brief: as §1

BEN = test system: BEN
Method in brief: as §1

HCC-366 = test system: HCC-366
Method in brief: as §1

NCI-H2342 = test system: NCI-H2342
Method in brief: as §1

COR-L23 = test system: COR-L23
Method in brief: as §1

PC-3 [JPC-3] = test system: PC-3 [JPC-3]
Method in brief: as §1

Compound: COCC1(CO)C(=O)C2CCN1CC2 (stereo unspecified) [PRIMA-1MET] + Nc1ncn([C@H]2C[C@H](O)[C@@H](CO)O2)c(=O)n1 [Decitabine] (partner 2 µM)
- relative viability (NCI-H596; first compound 0.2 µM): 1.09
- relative viability (NCI-H596; first compound 0.6325 µM): 0.855
- relative viability (NCI-H596; first compound 2 µM): 0.989
- relative viability (NCI-H596; first compound 6.325 µM): 1.07
- relative viability (NCI-H596; first compound 20 µM): 0.655
- relative viability (NCI-H1993; first compound 0.2 µM): 0.57
- relative viability (NCI-H1993; first compound 2 µM): 0.57
- relative viability (NCI-H1993; first compound 6.325 µM): 0.731
- relative viability (NCI-H1993; first compound 20 µM): 0.564
- relative viability (HCC-827; first compound 0.2 µM): 0.343
- relative viability (HCC-827; first compound 0.6325 µM): 0.157
- relative viability (HCC-827; first compound 2 µM): 0.302
- relative viability (HCC-827; first compound 6.325 µM): 0.384
- relative viability (HCC-827; first compound 20 µM): 0.305
- relative viability (LU99A; first compound 0.2 µM): 0.776
- relative viability (LU99A; first compound 0.6325 µM): 0.722
- relative viability (LU99A; first compound 2 µM): 0.888
- relative viability (LU99A; first compound 6.325 µM): 0.674
- relative viability (LU99A; first compound 20 µM): 0.51
- relative viability (NCI-H1944; first compound 0.2 µM): 0.436
- relative viability (NCI-H1944; first compound 0.6325 µM): 0.35
- relative viability (NCI-H1944; first compound 2 µM): 0.408
- relative viability (NCI-H1944; first compound 6.325 µM): 0.431
- relative viability (NCI-H1944; first compound 20 µM): 0.446
- relative viability (SK-LU-1; first compound 0.2 µM): 0.523
- relative viability (SK-LU-1; first compound 0.6325 µM): 0.513
- relative viability (SK-LU-1; first compound 2 µM): 0.503
- relative viability (SK-LU-1; first compound 6.325 µM): 0.707
- relative viability (SK-LU-1; first compound 20 µM): 0.593
- relative viability (LC-2-ad; first compound 0.2 µM): 0.902
- relative viability (LC-2-ad; first compound 0.6325 µM): 0.607
- relative viability (LC-2-ad; first compound 2 µM): 0.773
- relative viability (LC-2-ad; first compound 6.325 µM): 0.776
- relative viability (LC-2-ad; first compound 20 µM): 0.776
- relative viability (NCI-H3122; first compound 0.2 µM): 0.336
- relative viability (NCI-H3122; first compound 0.6325 µM): 0.288
- relative viability (NCI-H3122; first compound 2 µM): 0.425
- relative viability (NCI-H3122; first compound 6.325 µM): 0.367
- relative viability (NCI-H3122; first compound 20 µM): 0.425
- relative viability (NCI-H1915; first compound 0.2 µM): 0.278
- relative viability (NCI-H1915; first compound 0.6325 µM): 0.234
- relative viability (NCI-H1915; first compound 2 µM): 0.252
- relative viability (NCI-H1915; first compound 6.325 µM): 0.256
- relative viability (NCI-H1915; first compound 20 µM): 0.27
- relative viability (HCC-15; first compound 0.2 µM): 0.663
- relative viability (HCC-15; first compound 0.6325 µM): 0.373
- relative viability (HCC-15; first compound 2 µM): 0.647
- relative viability (HCC-15; first compound 6.325 µM): 0.585
- relative viability (HCC-15; first compound 20 µM): 0.563
- relative viability (RERF-LC-KJ; first compound 0.2 µM): 0.753
- relative viability (RERF-LC-KJ; first compound 0.6325 µM): 0.617
- relative viability (RERF-LC-KJ; first compound 2 µM): 0.718
- relative viability (RERF-LC-KJ; first compound 6.325 µM): 0.69
- relative viability (RERF-LC-KJ; first compound 20 µM): 0.595
- relative viability (NCI-H1755; first compound 0.2 µM): 0.785
- relative viability (NCI-H1755; first compound 0.6325 µM): 0.583
- relative viability (NCI-H1755; first compound 2 µM): 0.72
- relative viability (NCI-H1755; first compound 6.325 µM): 0.723
- relative viability (NCI-H1755; first compound 20 µM): 0.772
- relative viability (NCI-H522; first compound 0.2 µM): 0.648
- relative viability (NCI-H522; first compound 0.6325 µM): 0.592
- relative viability (NCI-H522; first compound 2 µM): 0.573
- relative viability (NCI-H522; first compound 6.325 µM): 0.672
- relative viability (NCI-H522; first compound 20 µM): 0.178
- relative viability (LCLC-97TM1; first compound 0.2 µM): 0.286
- relative viability (LCLC-97TM1; first compound 0.6325 µM): 0.163
- relative viability (LCLC-97TM1; first compound 2 µM): 0.209
- relative viability (LCLC-97TM1; first compound 6.325 µM): 0.153
- relative viability (LCLC-97TM1; first compound 20 µM): 0.246
- relative viability (COR-L 105; first compound 0.2 µM): 0.695
- relative viability (COR-L 105; first compound 0.6325 µM): 0.619
- relative viability (COR-L 105; first compound 2 µM): 0.551
- relative viability (COR-L 105; first compound 6.325 µM): 0.597
- relative viability (COR-L 105; first compound 20 µM): 0.179
- relative viability (EKVX; first compound 0.2 µM): 0.407
- relative viability (EKVX; first compound 2 µM): 0.277
- relative viability (EKVX; first compound 6.325 µM): 0.336
- relative viability (EKVX; first compound 20 µM): 0.199
- relative viability (SK-MES-1; first compound 0.2 µM): 0.381
- relative viability (SK-MES-1; first compound 0.6325 µM): 0.32
- relative viability (SK-MES-1; first compound 2 µM): 0.376
- relative viability (SK-MES-1; first compound 6.325 µM): 0.339
- relative viability (SK-MES-1; first compound 20 µM): 0.337
- relative viability (BEN; first compound 0.2 µM): 0.747
- relative viability (BEN; first compound 0.6325 µM): 0.473
- relative viability (BEN; first compound 6.325 µM): 0.652
- relative viability (BEN; first compound 20 µM): 0.632
- relative viability (HCC-366; first compound 0.2 µM): 0.325
- relative viability (HCC-366; first compound 0.6325 µM): 0.12
- relative viability (HCC-366; first compound 2 µM): 0.294
- relative viability (HCC-366; first compound 6.325 µM): 0.423
- relative viability (HCC-366; first compound 20 µM): 0.0554
- relative viability (NCI-H2342; first compound 0.2 µM): 0.671
- relative viability (NCI-H2342; first compound 0.6325 µM): 0.681
- relative viability (NCI-H2342; first compound 6.325 µM): 0.658
- relative viability (NCI-H2342; first compound 20 µM): 0.684
- relative viability (COR-L23; first compound 0.2 µM): 0.538
- relative viability (COR-L23; first compound 0.6325 µM): 0.243
- relative viability (COR-L23; first compound 2 µM): 0.397
- relative viability (COR-L23; first compound 6.325 µM): 0.439
- relative viability (COR-L23; first compound 20 µM): 0.036
- relative viability (PC-3 [JPC-3]; first compound 0.2 µM): 0.822
- relative viability (PC-3 [JPC-3]; first compound 0.6325 µM): 0.712
- relative viability (PC-3 [JPC-3]; first compound 2 µM): 0.841
- relative viability (PC-3 [JPC-3]; first compound 6.325 µM): 0.84
- relative viability (PC-3 [JPC-3]; first compound 20 µM): 0.802
